Reference: patent US10034896B2, “Compositions and methods for treatment of osteoporosis and other indications” (priority 2012, dated 2018)

What was measured:
[1] = Nitric oxide gas bubbled through carrier, weight gain; format: physicochemical; conditions: NO gas bubbled 40 hr, 25 ° C.
Protocol: This example illustrates one technique for preparing a composition in accordance with one embodiment of the invention. An accurate amount of a carrier (HNC 167-62) (see below) was introduced into a system. The carrier weight used in these experiments was approximately 250 g and the vessel size was 500 ml. The vessel was equipped with a mechanical stirrer, gas inlet, and gas outlet and was previously purged with argon for about an hour. The temperature of the carrier was kept at about 25-30° C. NO gas regulated at 5 psi (1 psi is about 6,900 Pa) and was then introduced at a controlled rate of about 1 bubble/s with continuous stirring. […] After 6 hours, the weight of the carrier had increased by 0.15%, by 12 hours by 0.25%, and by 24 hours by 0.56%. These increases in weight were believed to be significant considering the relative small molecular weight of NO versus the carrier. […] The carrier also can solidify upon cooling if the carrier is initially a solid at lower temperature.
Each carrier was taken in a 500 mL three necked flask equipped with a mechanical stirrer, gas inlet and a gas outlet. The system was purged with argon for one hour at room temperature (25° C.). Then nitric oxide gas was bubbled into the system. Then, nitric oxide gas was bubbled through carrier for stipulated amount of time. The changes in weight and color were noted. […]

[2] = test system: micro-capillary blood flow to skin; test: Laser Doppler study in closed Hilltop chamber on forearm, Example 5; format: in vivo, human; conditions: applied to the skin at 1/10% in alcohol
From the text: The formulation used in these studies contained nitric oxide dispersed in a lipid matrix. […] Nitric oxide is a very rapid acting molecule, and these studies used a system that employed laser Doppler with a covered chamber. The formulation was placed into the chamber and then attached to the skin by an adhesive layer on the covering. This provided a stable measuring device as determined by multiple normal evaluations of the capillary blood flow without treatment of nitric oxide.
A known positive control, methyl nicotinate, was applied to the skin at a concentration of 1/10% in alcohol. […] The vascular dynamics are such that when the blood vessels dilate physical parameters follow Bernoulli's law. […] The laser Doppler device accurately measured these parameters.
In these studies, the participants were healthy females aged 30 to 55 years. They were in good health as determined by the medical history and were not taking any prescription medications. All study participants read and signed the informed consent statement prior to any study procedures being performed. […]
A Moor Instruments DRT4 Laser Doppler Blood Flow Monitor (Devon, England) was used in these studies. The laser Doppler technique measured blood flow in the microcapillaries of the skin that are close to the skin surface and the blood flow in underlying arterioles and venules that help to regulate skin temperature. […]

[3] = test system: capillary circulation of the skin; test: Laser Doppler study of creams in five human subjects, Example 7; format: in vivo; conditions: positive control formulation containing 0.1% methyl nicotinate
From the text: This example illustrates delivery of nitric oxide formulations to five human subjects, using procedures and formulations similar to those discussed in Example 5. Each person served as their own control for the testing. A Moor Instruments Laser Doppler was used to determine circulation. […] The formulations used produce positive, almost immediate results when applied to the skin which, in these studies, was manifested by vasodilatation of the cutaneous vascular system.
For each subject, the following creams were applied: a negative control formulation (containing no NO), 0.010 gram of a 10,000 ppm NO formulation, 0.020 gram of a 10,000 ppm NO formulation, and a positive control formulation containing 0.1% methyl nicotinate. The formulations were prepared using procedures similar to those discussed in Example 1.

Row | SMILES | % Wt. gain [1] | laser Doppler response to positive control [2] | vasodilatation (laser Doppler) [3]
1 | OCCCO [1,3-Propanediol, 1,3-propanediol] | 0.09% |  | 
2 | COC(=O)c1cccnc1 [methyl nicotinate] |  | rapid response typical of the vasodilator | vasodilatation was observed
